The source made the active and inactive calls.

A short description of experiment [1]: cytotoxicity in COV362 ovarian cancer cells, dose response, cytotoxicity control for PAX8 inhibitor project, cell-based, plate reader, dry powder, SA12 (AID 743144). The class given is functional.
Experiment [2] can be described thus: cytotoxicity toward DRD oncogenic fibroblasts, dose response, cell-based, non-viral oncogenic, luminescence (AID 1934). The class given is functional. The note with it: Homo sapiens.
A short description of experiment [3]: cytotoxicity in HEK-293T cells, dose response, cytotoxicity control for TCR NF-kB inhibitor project, luminescence, T-cell screen hits (AID 489026).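 Further: cells exposed to compound about 14 hours before the viability readout.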 It counts as functional, cell-based.
Experiment [4] in a line: inhibitors of SNCA 5'UTR-driven reporter translation, confirmation, H4 neuroglioma cells, luminescence (AID 1988). The class given is functional, cell-based.
The nature of experiment [5]: Luminescence-based dose response cell-based high throughput screening assay for cytotoxic compounds using the IEC-6 intestinal epithelial cell line. [Related pubchem assays: 1858 (Summary AID.), 1825 (Counterscreen.), 1907 (Confirmation screen.)]. The class given is functional. (The purpose of a counterscreen is to sort out artefacts and off-target activity.)
A short description of experiment [6]: IOSE-T80 ovarian epithelial cell cytotoxicity, dose response, cytotoxicity control for PAX8 inhibitor project, plate reader, dry powder samples (AID 743045). The class given is functional, cell-based.
Experiment [7] can be described thus: PAX2 cell-based inhibition, dose response, selectivity assay for PAX8 inhibitor project, plate reader, dry powder samples (AID 743048).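 Further: HEK293 cells carrying a WT1 promoter luciferase reporter driven by expressed Pax2; potency is for inhibition of Pax2 driven reporter signal.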 It counts as functional.
Experiment [8] in a line: cytotoxicity in OV-90 ovarian cancer cells, dose response, PAX8 inhibitor project, cell-based, plate reader, dry powder, SA8 (AID 743149). It counts as functional.
A short description of experiment [9]: luciferase reporter signal reduction – luminescence, H4-C neuroglioblastoma cells, dose response (AID 2458).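 Further: H4 neuroglioblastoma cells stably carrying a luciferase reporter gene fusion.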 The class given is functional, cell-based. On the technique in general: In a reporter assay the amount or activity of a reporter protein is the signal.
A further experiment can be described thus: cells. The class given is functional, cell-based.
The nature of experiment [10]: cytotoxicity in COV434 cells, dose response, cytotoxicity control for PAX8 inhibitor project, cell-based, plate reader, dry powder, SA7 (AID 743145). It counts as functional.
Experiment [11] in a line: PAX5 activity inhibitors, dose response, selectivity assay for PAX8 inhibitor project, cell-based, plate reader, dry powder samples (AID 743047).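 Further: HEK293 cells carrying a Pax5 driven CD19 promoter luciferase reporter; potency of inhibitors that lower reporter luminescence.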 The class given is functional.
Experiment [12] in a line: IGROV1 ovarian cancer cell cytotoxicity, dose response, PAX8 inhibitor project, plate reader, dry powder samples (AID 743043). The note with it: IGROV-1. The class given is functional, cell-based.
For the next experiment, the target named is Phospholipase A2 (Homo sapiens, UniProt P04054). In words: PLA2 enzyme inhibitors, dose response, counter-screen for ATG4B inhibitor project, biochemical, set 2 (AID 588586). It counts as functional.
Sequence of Phospholipase A2 (P04054 whole entry): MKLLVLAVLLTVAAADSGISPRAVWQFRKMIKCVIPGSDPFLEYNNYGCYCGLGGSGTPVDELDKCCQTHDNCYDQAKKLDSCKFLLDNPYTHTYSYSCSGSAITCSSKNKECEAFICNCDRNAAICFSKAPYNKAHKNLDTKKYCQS
A further experiment addresses Paired box protein Pax-8 (Homo sapiens, UniProt Q06710). Briefly: inhibitors of PAX8-driven TPO luciferase reporter, dose response, RMG-I cells, cherry-pick (AID 687027).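 Further: luciferase reporter driven by Pax8 target thyroperoxidase promoter measured by SteadyGlo luminescence.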 It counts as functional, cell-based.
Experiment [13] is described as follows: cytotoxicity in OVCAR4 cells, dose response, cytotoxicity control for PAX8 inhibitor project, cell-based, plate reader, dry powder, SA11 (AID 743150). The class given is functional. The note with it: OVCAR-4.
The subject of experiment [14] is BJ. In words: cytotoxicity toward BJ-TERT fibroblasts, dose response, cell-based, RAS-independent, luminescence (AID 1933). The class given is functional. The note with it: Homo sapiens.
Experiment [15] can be described thus: NIH:OVCAR-3 ovarian cancer cell cytotoxicity, dose response, PAX8 inhibitor project, plate reader, dry powder samples (AID 743044). The class given is functional, cell-based.
The next experiment has as its target T1, Cysteine protease ATG4B (Homo sapiens, UniProt Q9Y4P1).
T1 sequence (Q9Y4P1 whole entry): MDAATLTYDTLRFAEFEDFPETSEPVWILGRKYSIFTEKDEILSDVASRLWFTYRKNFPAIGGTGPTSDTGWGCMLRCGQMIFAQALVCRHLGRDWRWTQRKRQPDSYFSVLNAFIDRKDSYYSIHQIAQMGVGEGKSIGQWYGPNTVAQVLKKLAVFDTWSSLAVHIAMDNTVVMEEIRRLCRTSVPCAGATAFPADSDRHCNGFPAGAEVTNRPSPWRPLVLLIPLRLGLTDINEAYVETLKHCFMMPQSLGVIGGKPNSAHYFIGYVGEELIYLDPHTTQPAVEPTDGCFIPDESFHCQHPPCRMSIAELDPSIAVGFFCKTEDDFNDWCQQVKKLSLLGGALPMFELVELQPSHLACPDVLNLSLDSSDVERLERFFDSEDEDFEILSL
Briefly: ATG4B protease inhibitors, dose response, biochemical, fluorescence, set 2 (AID 588584). The class given is functional.

Experiment [16] in a line: A2780 ovarian cancer cell cytotoxicity, dose response, cytotoxicity control, plate reader, dry powder samples (AID 743046). It counts as functional, cell-based.
Experiment [17] is described as follows: cytotoxicity dependent on PAX8, dose response, cell-based, plate reader, dry powder (AID 743049). It counts as functional.
Experiment [18] deals with BJ. Briefly: cytotoxicity toward BJ-TERT-LT-ST fibroblasts, dose response, cell-based, RAS-independent, luminescence (AID 1935).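 Further: BJ fibroblasts immortalized with TERT plus LT and ST oncogenes.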 It counts as functional. The note with it: Homo sapiens.
Experiment [19] relates to BJ. In words: cells. The class given is functional, cell-based. The note with it: Homo sapiens.
A short description of experiment [20]: inhibitors of SNCA 5'UTR-driven translation, confirmation, luminescence, H4 neuroglioblastoma cells, dose confirmation (AID 2454).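 Further: H4 neuroglioblastoma cells carrying an alpha-synuclein 5'UTR luciferase reporter; potency for inhibition of the luciferase signal.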 The class given is functional, cell-based.
Experiment [21] deals with Dual specificity tyrosine-phosphorylation-regulated kinase 1A (Rattus norvegicus, UniProt Q63470). The class given is biochemical, Homo sapiens.
Experiment [22] can be described thus: Luminescence-based counterscreen assay for KLF5 inhibitors: dose response cell-based high throughput screening assay to identify cytotoxic compounds using the IEC-6 intestinal epithelial cell line. [Related pubchem assays: 1700 (Primary screen.), 1834 (Confirmation screen.), 1858 (Summary AID.), 1905 (Counterscreen.)]. The class given is functional.

Sequence of Paired box protein Pax-8 (Q06710 whole entry): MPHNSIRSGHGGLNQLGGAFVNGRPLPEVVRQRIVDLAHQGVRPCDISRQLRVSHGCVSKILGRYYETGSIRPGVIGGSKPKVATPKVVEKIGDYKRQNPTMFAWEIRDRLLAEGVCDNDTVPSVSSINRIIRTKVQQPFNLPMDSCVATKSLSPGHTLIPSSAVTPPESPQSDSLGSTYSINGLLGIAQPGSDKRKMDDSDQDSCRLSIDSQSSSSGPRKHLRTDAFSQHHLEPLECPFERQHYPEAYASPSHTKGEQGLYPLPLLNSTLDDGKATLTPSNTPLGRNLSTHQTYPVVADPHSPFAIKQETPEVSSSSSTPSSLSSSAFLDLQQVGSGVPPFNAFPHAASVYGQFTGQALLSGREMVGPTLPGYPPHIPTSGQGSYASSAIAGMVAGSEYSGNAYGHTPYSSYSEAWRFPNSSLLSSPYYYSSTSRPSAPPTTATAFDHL

For `CCCC1=Nc2cc(C(=O)NCCCOCC)ccc2Sc2ccccc21`, the AC50 (commonly the concentration at which the activity in the assay is half-maximal) in experiment [1] is 1420 nM (active); in experiment [6], 1220 nM (active); in [7], 64000 nM (active); in [8] it was 1360 nM (active); in experiment [10], 1300 nM (active); in [11], 1480 nM (active). In addition, the AC50 in experiment [12] was 7990 nM (active); on Paired box protein Pax-8, 1740 nM (active); in experiment [13], 885 nM (active); in [15], 5370 nM (active); in experiment [16], 5660 nM (active); in [17] it was 7230 nM (active). The EC50 (as a rule, the midpoint of the concentration-response curve) in experiment [2] was 740 nM (inconclusive); in experiment [4], < 100 nM (active); in experiment [9], 592 nM (active); in the experiment “cells” it was 985 nM (active); in the experiment with BJ [14], 586 nM (inconclusive); with BJ [18], 607 nM (inconclusive). The EC50 was 863 nM (inconclusive) in the experiment with BJ [19] and 836 nM (active) in experiment [20]. Moreover, the IC50 (usually the midpoint of a concentration-inhibition curve) in experiment [3] was > 80000 nM (inactive); in experiment [5] it was 389 nM (active); on Phospholipase A2, 48900 nM (inactive); on Cysteine protease ATG4B, 49000 nM (inactive).
Turning to `COc1ccc2[nH]c(C(=O)N/N=C/c3ccc(OC)c(O)c3)cc2c1`, in experiment [21], the AC50 is 1040 nM (active). For the same compound, the EC50 in [2] is 41700 nM (inconclusive); in the experiment on BJ [14] it was 1890 nM (active); in the experiment on BJ [18], 50500 nM (inconclusive); in the experiment on BJ [19] it was 59500 nM (inconclusive). Besides, the IC50 in [22] is 20400 nM (not active).

For the origin of these results see ChEMBL document CHEMBL1201862, “PubChem BioAssay data set” (2004).
